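These data come from cells grown in 96-well plates and exposed to compound for 48 hours at five concentrations. At the GI50, growth is halved.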 Calls of active or inactive are those of the source. No stated cut-off is given here; in the data, active = GI50 up to about 1.1 µM and inactive = higher.

Some test systems named below: OVCAR-4; HL-60; IGROV-1; KM12; HCC 2998; EKVX; U-251; M14; HOP-92; SF-295; NCI/ADR-RES; OVCAR-3; A549; UO-31; MCF7; SK-MEL-5; HT-29; A498; SW-620; SR.
Holding throughout (assay): inhibition of tumour cell growth, NCI panel, 48 h

Consider `O=C(NC1C/C(=N/O)c2c(Br)sc(Br)c21)C(F)(F)F` (stereo not drawn), for which the GI50 was 13.8 µM (inactive) in the assay with OVCAR-4; 32.4 µM (inactive) with HL-60; 94 µM (inactive) in the assay on IGROV-1; 45 µM (inactive) in the assay on KM12; 22.6 µM (inactive) with HCC 2998; 27 µM (inactive) in the assay on EKVX. Besides, the GI50 in the assay with U-251 was 16.7 µM (inactive); with M14, 36.2 µM (inactive); in the assay with HOP-92, 3.65 µM (inactive); in the assay with SF-295, 31 µM (inactive); in the assay with NCI/ADR-RES, 19.3 µM (inactive); in the assay with OVCAR-3, 35.8 µM (inactive). The GI50 is 20 µM (inactive) with A549; 13.7 µM (inactive) with UO-31; 37.6 µM (inactive) in the assay with MCF7; 19.6 µM (inactive) in the assay with SK-MEL-5; 26.9 µM (inactive) with HT-29; 24.5 µM (inactive) in the assay on A498. Moreover, the GI50 in the assay on SW-620 was 30.2 µM (inactive).
Regarding `CC1(C)N=C(Oc2ccccc2)n2nccc2N1`, the GI50 in the assay on OVCAR-4 is > 100 µM (inactive); with SR it was 61.4 µM (inactive); with HL-60 it was > 100 µM (inactive); in the assay with IGROV-1, > 100 µM (inactive); in the assay with KM12, > 100 µM (inactive); with HCC 2998, > 100 µM (inactive). In addition, the GI50 in the assay on EKVX is > 100 µM (inactive); in the assay on U-251 it was > 100 µM (inactive); in the assay on M14 it was 73.1 µM (inactive); with HOP-92, > 100 µM (inactive); in the assay with SF-295, > 100 µM (inactive); in the assay with OVCAR-3, > 100 µM (inactive). Moreover, the GI50 in the assay with A549, with UO-31, in the assay on SK-MEL-5, with HT-29, in the assay on A498 and in the assay on SW-620 was > 100 µM (inactive) in each case.
In the case of `Cc1nnc(Nc2ccc(Cl)cc2)o1`, the GI50 with OVCAR-4, in the assay with HL-60, in the assay on IGROV-1, with KM12, in the assay on HCC 2998 and in the assay on EKVX was > 10 µM (inactive) each time. Also, the GI50 in the assay with U-251, with M14, in the assay on SF-295, with NCI/ADR-RES, in the assay with OVCAR-3 and in the assay with A549 was > 10 µM (inactive) throughout. The GI50 with UO-31, with MCF7, in the assay on SK-MEL-5, with HT-29, in the assay with A498 and in the assay on SW-620 was > 10 µM (inactive) in each case.
On to `C/C(=C1\N=C(c2ccccc2)OC1=O)c1ccccc1`, for which the GI50 in the assay on OVCAR-4, in the assay with SR, in the assay on HL-60, with IGROV-1, in the assay with KM12 and in the assay with HCC 2998 was > 100 µM (inactive) throughout. For the same compound, the GI50 in the assay with EKVX, with U-251, with M14, with HOP-92, in the assay on SF-295 and in the assay with OVCAR-3 was > 100 µM (inactive) in each case. For the same compound, the GI50 in the assay with A549, in the assay on UO-31, with MCF7, in the assay on SK-MEL-5, with HT-29 and with A498 was > 100 µM (inactive) in each case. Further, the GI50 with SW-620 is > 100 µM (inactive).
In the case of `Cc1ccc(CCC(=O)C(=O)O)s1`, the GI50 in the assay on OVCAR-4, in the assay on SR, with HL-60, in the assay with IGROV-1, in the assay on KM12 and in the assay with HCC 2998 was > 100 µM (inactive) in each case. The GI50 was > 100 µM (inactive) in the assay with EKVX; 81.7 µM (inactive) in the assay on U-251; > 100 µM (inactive) with M14; > 100 µM (inactive) in the assay on HOP-92; > 100 µM (inactive) with SF-295; > 100 µM (inactive) in the assay on OVCAR-3. Further, the GI50 with A549 was > 100 µM (inactive); in the assay with UO-31, > 100 µM (inactive); in the assay on SK-MEL-5, > 100 µM (inactive); in the assay on HT-29, > 100 µM (inactive); in the assay with A498, 89.5 µM (inactive); in the assay with SW-620, > 100 µM (inactive).
Turning to `NC1CCCCC1`, the GI50 in the assay on OVCAR-4 is 265 µM (inactive); with HL-60, 135 µM (inactive); in the assay on IGROV-1, 317 µM (inactive); with KM12, 211 µM (inactive); with HCC 2998, 310 µM (inactive); in the assay on EKVX, 489 µM (inactive). Besides, the GI50 with U-251 was 313 µM (inactive); with HOP-92, 258 µM (inactive); in the assay on NCI/ADR-RES, > 562 µM (inactive); in the assay on OVCAR-3 it was 190 µM (inactive); in the assay on A549 it was 194 µM (inactive); in the assay on MCF7 it was 199 µM (inactive). For the same compound, the GI50 in the assay with SK-MEL-5 is 283 µM (inactive); with HT-29, 199 µM (inactive); with A498, > 562 µM (inactive); in the assay on SW-620, 419 µM (inactive).
For `CC(=O)[C@H]1CCC2[C@@H]3CC=C4C(O)C(OS(=O)(=O)O)CC[C@]4(C)C3CC[C@@]21C` (stereo partly drawn), the GI50 was > 100 µM (inactive) with OVCAR-4; > 31.6 µM (inactive) in the assay on HL-60; > 100 µM (inactive) in the assay on IGROV-1; > 100 µM (inactive) in the assay with KM12; > 100 µM (inactive) in the assay with HCC 2998; > 100 µM (inactive) in the assay with EKVX. Besides, the GI50 in the assay on U-251, with HOP-92, with SF-295, in the assay on NCI/ADR-RES, with OVCAR-3 and with A549 was > 100 µM (inactive) throughout. Moreover, the GI50 with UO-31, in the assay with MCF7, with SK-MEL-5, in the assay on HT-29, in the assay on A498 and with SW-620 was > 100 µM (inactive) throughout.
`Cc1[nH]c2ncn(/N=C/c3ccccc3O)c(=N)c2c1Cc1ccccc1`: the GI50 in the assay with OVCAR-4 is 63.5 µM (inactive); with HL-60 it was 23.6 µM (inactive); in the assay with IGROV-1, > 100 µM (inactive); with KM12, 30.2 µM (inactive); with HCC 2998 it was 28.9 µM (inactive); in the assay on EKVX it was 25 µM (inactive). Besides, the GI50 is 19.6 µM (inactive) in the assay on U-251; 58.6 µM (inactive) in the assay with M14; > 100 µM (inactive) in the assay with HOP-92; 58.6 µM (inactive) with SF-295; 40.6 µM (inactive) with NCI/ADR-RES; 24.2 µM (inactive) in the assay with OVCAR-3. Besides, the GI50 is 39.4 µM (inactive) with A549; 43.1 µM (inactive) in the assay on UO-31; 33 µM (inactive) in the assay with MCF7; 47.6 µM (inactive) with HT-29; 36.5 µM (inactive) with A498; 32.2 µM (inactive) with SW-620.
Take `COc1cc([C@@H]2c3cc4c(cc3[C@@H](c3c(O)cc(O)c5c3O[C@H](c3ccc(O)c(O)c3)[C@@H](O)C5)[C@H]3COC(=O)[C@H]23)OCO4)cc(OC)c1O`: the GI50 is > 100 µM (inactive) with OVCAR-4; 27 µM (inactive) in the assay with HL-60; > 100 µM (inactive) in the assay on IGROV-1; > 100 µM (inactive) in the assay with KM12; > 100 µM (inactive) in the assay on HCC 2998; > 100 µM (inactive) in the assay with EKVX. Moreover, the GI50 in the assay on U-251, in the assay on M14, in the assay on HOP-92, in the assay with SF-295, in the assay with NCI/ADR-RES and in the assay on OVCAR-3 was > 100 µM (inactive) in each case. Further, the GI50 in the assay on A549 is > 100 µM (inactive); with MCF7 it was > 100 µM (inactive); in the assay with SK-MEL-5, 46.7 µM (inactive); with HT-29, > 100 µM (inactive); in the assay on A498, > 100 µM (inactive); in the assay on SW-620, 58.9 µM (inactive).
Turning to `CC1[C@@H]2CC=C3C4CCC5Cc6nc7c(nc6C[C@@]5(C)C4CC(=O)[C@]32CO[C@@]1(O)C(O)CC(C)(C)O)CC1CCC2C3=C[C@H]4O[C@@]5(O[C@@](C)(CO)C[C@@H]5O)C(C)[C@@]4(O)[C@]3(C)[C@@H](O)CC2[C@]1(C)C7` (stereo partly drawn), the GI50 in the assay on OVCAR-4 is 0.431 µM (active); in the assay on HL-60, < 0.00036 µM (active); in the assay on IGROV-1 it was 0.0101 µM (active); in the assay with KM12, 0.0181 µM (active); with HCC 2998, 0.0243 µM (active); with EKVX, 0.000386 µM (active). The GI50 with U-251 was < 0.00036 µM (active); with HOP-92 it was 0.0041 µM (active); with SF-295, < 0.00036 µM (active); in the assay on NCI/ADR-RES, 0.612 µM (active); in the assay on OVCAR-3, 0.491 µM (active); with A549, 0.0031 µM (active). The GI50 in the assay on UO-31 is 0.0259 µM (active); in the assay with MCF7, 0.0109 µM (active); with SK-MEL-5, 0.0102 µM (active); in the assay with HT-29, 0.00459 µM (active); in the assay with A498 it was 0.00108 µM (active); in the assay with SW-620, 0.00933 µM (active).
For the compound `COCCO` [2-METHOXYETHANOL], the GI50 in the assay with OVCAR-4, in the assay on HL-60, with IGROV-1, with KM12, with HCC 2998 and with EKVX was > 100 µM (inactive) each time. Besides, the GI50 in the assay with U-251, in the assay on HOP-92, with SF-295, with NCI/ADR-RES, in the assay with OVCAR-3 and with A549 was > 100 µM (inactive) each time. Moreover, the GI50 in the assay with UO-31 is > 87.3 µM (inactive); in the assay on MCF7, > 100 µM (inactive); in the assay on SK-MEL-5, > 100 µM (inactive); in the assay on HT-29, > 100 µM (inactive); with A498 it was > 100 µM (inactive); in the assay with SW-620, > 100 µM (inactive).

The values are drawn from ChEMBL document CHEMBL1201862, “PubChem BioAssay data set” (2004).
